Legend:
EBNA1 G4 RNA = assay: FP assay, compound binding to EBNA1 G4 RNA
Procedure: All the nucleic acids, peptides and chemicals were dissolved in buffer containing 20 mM HEPES pH7.5, 150 mM salt (KCl, NaCl, LiCl) at the stock concentration of 1 mM. For peptide and nucleic acid interactions, 25μL of each nucleic acids with a sequential twofold dilutions starting from 50 μM was added into each well of 96-well plate followed by adding 25μL of 10 nM FITC labeled TRF2 peptide. For compounds and nucleic acid interactions, 20μL of each compounds with a sequential twofold dilutions starting from 50 μM were added into each well of 96-well plate followed by adding 5μL of 20 ng/mL tRNA and 25μL of 10 nM FAM labeled nucleic acids. For inhibition assay, 5μL FITC labeled TRF2 GAR peptide (10 nM final concentration) and 10 μL oligos (5 μM final concentration) were mixed, followed by adding 5μL of each compound with a sequential twofold dilutions starting from 50 μM into each well of 384-well plate. All components were mixed thoroughly, and the plate was incubated at room temperature for 1 h before placing in an Envision Plate Reader for reading at 495/520 nm. All data curves were fitted using Prism 8.0.

[1] = test system: nascent TERRA transcripts; assay: Nascent RNA capture (EU, Click-iT) and RT-qPCR for TERRA in LOX cells; type: cell-based, human; conditions: 2 μM, 48 h, then EU 4 h
Procedure: Mei et al, 2020 TERRA Requires TRF2 GAR Domain
Nascent RNA analysis was performed as described previously 2 by the use of Click-iT Nascent RNA capture kit (Life Technologies) with some modifications. Briefly, LOX cells were treated with 2 µM of chemicals, or LOX TRF2DB cells were induced with 1 µg/ml of doxycycline for 48 hrs, and then treated cells were pulse labeled 0.2 mM EU for additional 4 hrs. Total RNA was prepared and biotinylated by Click reaction. Nascent RNA was purified by using Streptavidin T1 magnetic beads and was subject to cDNA synthesis using SuperScript VILO cDNA synthesis kit (Life Technologies). Relative Nascent RNA expression was determined using DCT methods relative to control gene U1 or Actin. Primer sequences used in qPCR analysis of 10q, 13q, XYq, and 18q TERRA were described previously 2.
Reference (Supplmentary Methods)
1 Deng, Z., Norseen, J., Wiedmer, A., Riethman, H. & Lieberman, P. M. TERRA RNA binding to TRF2 facilitates heterochromatin formation and ORC recruitment at telomeres. Mol […]
2 Deng, Z. et al. HSV-1 remodels host telomeres to facilitate viral replication. Cell Rep 9,
3 Deng, Z. et al. A role for CTCF and cohesin in subtelomere chromatin organization, TERRA transcription, and telomere end protection. EMBO J 31, 4165-4178, […]

[2] = test system: telomere repeat DNA in LOX cells; assay: Telomere length analysis (PFGE, Southern blot) of LOX cells; type: cell-based, human; conditions: for telomere repeat DNA signals: TLA
Procedure: Genomic DNA was isolated from cells using a genomic DNA purification kit (Promega) and digested with AluI and MboI. Digested genomic DNA was purified by phenol/choloroform extraction and quantified using a Qubit 4 Fluorometer (Thermal Scientific). Equal amounts of digested DNA (5 μg) were separated by pulse-field gel electrophoresis (PFGE) performed with a 1% agarose gel at 6V/cm, switch times from 1 to 12s, 15 °C for 12h using CHEF-DRIII system (Bio-Rad). The DNA was transferred to GeneScreen Plus blotting membranes (Perkin-Elmer) and analyzed by Southern blot. The blots were hybridized with a 32P-labeled telomere repeat or […]
Alu probe at 42 °C overnight, then washed twice for 5 min each with 0.2 M wash buffer (0.2 M Na2HPO4 pH 7.2, 1 mM EDTA, and 2% SDS) at room temperature and once for 10 min with 0.1 M wash buffer at 42°C. Relative telomere-repeat signals were determined by Typhoon 9410 Imager and ImageQuant TL software (GE Healthcare). Signal intensity represents the percentage decrease of average telomere signals relative to dox (-) or PP control. […]
100, 1 mM EDTA in 1x PBS) before immuno-staining. Primary antibodies were prepared in blocking solution at following dilutions: anti-53BP1 (1:500, IHC-00001; Bethyl Laboratories) and γH2AX (1:2,000, A300-081A; Bethyl Laboratories). After IF, cells were fixed in 4% paraformaldehyde in 1x PBS for 10 min, washed in 1x PBS, dehydrated in ethanol series (70%, 95%, 100%), and air-dried. Coverslips were denatured for 5 min at 80-85° C in hybridization mix [70% formamide, 10 mM Tris-HCl, pH 7.2, and 0.5% blocking solution (Roche)] containing telomeric PNA-Cy3-(CCCTAA)3 probe, and hybridization was continued for 2 hrs at room temperature in the dark moisturized chambers. Coverslips were washed twice for 15 min each with 70% formamide, 10 mM Tris-HCl (pH 7.2), and 0.1% BSA, and followed by three washes for 5 min each with 0.15 M NaCl, 0.1 M Tris-HCl (pH 7.2), and 0.08% Tween-20. Nuclei were counterstained with 0.1 µg/ml DAPI in blocking solution and coverslips mounted with VectorShield (Vector Laboratories). RNA FISH was performed as previously described 1.
Images were captured with a 100x lens on a Nikon E600 Upright microscope (Nikon

[3] = test system: TeloDNA antisense (5'-fluorescein) (DNA, single strand) CCCTAACCCTAACCCTAACCCTAA; assay: fluorescence polarization; conditions: 150 mM salt (KCl, NaCl or LiCl; which not stated); 20 mM HEPES pH 7.5, room temperature, tRNA competitor; dilutions from 50 μM compound
[4] = test system: TERRA (unlabelled) (RNA, G4) UUAGGGUUAGGGUUAGGGUUAGGG; assay: fluorescence polarization, displacement of TRF2 GAR peptide; conditions: 150 mM KCl, NaCl or LiCl (salt not specified); 20 mM HEPES; 20 mM HEPES pH 7.5, room temperature; FITC-TRF2 GAR peptide 10 nM displaced; 5 μM oligo

Row | SMILES | EC50 (EBNA1 G4 RNA) | binding to EBNA1 G4 RNA (EBNA1 G4 RNA) | nascent TERRA transcripts from chromosomes 10q, XYq and 18q [1] | telomere repeat DNA signals [2] | binding [3] | IC50 [4] | average telomere length ([2]; 2 μM, 2 and 3 days)
1 | CN(C)c1ccc(Nc2c3ccc(NC(=O)CCN4CCCC4)cc3nc3cc(NC(=O)CCN4CCCC4)ccc23)cc1 [BRACO-19] | 227 nM | high binding affinity | significant reduction (~ two fold) | to a lesser extent | no | 240 nM | –
2 | CCc1c(C)c2cc3nc(cc4nc(cc5c(CC)c(C)c(cc1[nH]2)n5C)C(C)=C4CCC(=O)O)C(CCC(=O)O)=C3C [NMM, N-methyl mesoporphyrin IX] | – | did not display any binding | significant reduction (~ two fold) | reduced telomere repeat DNA signals | no | 420 nM | decrease in average telomere length
